Laboratory results: ChEMBL document CHEMBL5236585, “Design, synthesis and antifungal activities of novel triazole derivatives with selenium-containing hydrophobic side chains” (Bioorg Med Chem Lett, 2022)

Key:
[1] = test system: Candida albicans; assay: Antifungal activity against Candida albicans CPCC 400616 assessed as inhibition of fungal growth by microdilution method; type: functional
[2] = test system: Candida albicans; assay: Antifungal activity against Candida albicans ATCC SC5314 assessed as inhibition of fungal growth by microdilution method; type: functional
[3] = test system: Nakaseomyces glabratus; assay: Antifungal activity against clinical isolate Candida glabrata assessed as inhibition of fungal growth by microdilution method; type: functional
[4] = test system: Candida parapsilosis; assay: Antifungal activity against Candida parapsilosis 22019 assessed as inhibition of fungal growth by microdilution method; type: functional; details: Lodderomyces parapsilosis
[5] = test system: Pichia kudriavzevii; assay: Antifungal activity against Candida krusei AS 2.1045 assessed as inhibition of fungal growth by microdilution method; type: functional
[6] = test system: Candida tropicalis; assay: Antifungal activity against Candida tropicalis CGMCC 2.3739 assessed as inhibition of fungal growth by microdilution method; type: functional
[7] = test system: Cryptococcus neoformans; assay: Antifungal activity against Cryptococcus neoformans CGMCC 2.3161 assessed as inhibition of fungal growth by microdilution method; type: functional
[8] = test system: Aspergillus fumigatus; assay: Antifungal activity against Aspergillus fumigatus CGMCC 3.7795 assessed as inhibition of fungal growth by microdilution method; type: functional
[9] = biological target: T1, Lanosterol 14-alpha demethylase (Candida albicans (strain SC5314 / ATCC MYA-2876) (Yeast), UniProt P10613); assay: Inhibition of CYP51 in Candida albicans SC5314 assessed as ergosterol level at 8 ug/ml by GC-MS analysis (reference value: 98.3 %); parameters: scale not given: the % may be the effect or the level left; details: at 8 µg/mL
T1 sequence (P10613 whole entry): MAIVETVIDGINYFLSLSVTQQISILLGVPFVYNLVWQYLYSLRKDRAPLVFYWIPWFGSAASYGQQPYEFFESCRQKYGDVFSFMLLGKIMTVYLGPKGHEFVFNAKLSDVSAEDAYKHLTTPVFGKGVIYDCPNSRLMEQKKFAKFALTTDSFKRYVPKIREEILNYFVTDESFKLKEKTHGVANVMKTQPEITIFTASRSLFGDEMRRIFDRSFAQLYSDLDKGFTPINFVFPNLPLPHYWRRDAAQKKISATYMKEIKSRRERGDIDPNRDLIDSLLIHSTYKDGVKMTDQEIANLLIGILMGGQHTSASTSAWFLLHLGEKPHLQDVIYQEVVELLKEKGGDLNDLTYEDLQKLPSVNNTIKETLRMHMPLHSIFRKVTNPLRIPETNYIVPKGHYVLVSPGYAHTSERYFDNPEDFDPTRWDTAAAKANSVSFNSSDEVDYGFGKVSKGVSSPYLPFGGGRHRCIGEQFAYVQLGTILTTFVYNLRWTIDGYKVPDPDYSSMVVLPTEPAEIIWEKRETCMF

[10] = biological target: T1, Lanosterol 14-alpha demethylase; assay: Inhibition of CYP51 in Candida albicans SC5314 assessed as ergosterol level at 16 ug/ml by GC-MS analysis (reference value: 98.3 %); parameters: scale not given: the % may be the effect or the level left; details: at 16 µg/mL
[11] = biological target: T1, Lanosterol 14-alpha demethylase; assay: Inhibition of CYP51 in Candida albicans SC5314 assessed as ergosterol level at 32 ug/ml by GC-MS analysis (reference value: 98.3 %); parameters: scale not given: the % may be the effect or the level left; details: at 32 µg/mL
[12] = biological target: T1, Lanosterol 14-alpha demethylase; assay: Inhibition of CYP51 in Candida albicans SC5314 assessed as ergosterol level at 64 ug/ml by GC-MS analysis (reference value: 98.3 %); parameters: scale not given: the % may be the effect or the level left; details: at 64 µg/mL
[13] = biological target: T1, Lanosterol 14-alpha demethylase; assay: Inhibition of CYP51 in Candida albicans SC5314 assessed as obtusifoliol level at 8 ug/ml by GC-MS analysis (reference value: 0 %); parameters: scale not given: the % may be the effect or the level left; details: at 8 µg/mL
[14] = biological target: T1, Lanosterol 14-alpha demethylase; assay: Inhibition of CYP51 in Candida albicans SC5314 assessed as obtusifoliol level at 16 ug/ml by GC-MS analysis (reference value: 0 %); parameters: scale not given: the % may be the effect or the level left; details: at 16 µg/mL
[15] = biological target: T1, Lanosterol 14-alpha demethylase; assay: Inhibition of CYP51 in Candida albicans SC5314 assessed as obtusifoliol level at 32 ug/ml by GC-MS analysis (reference value: 0 %); parameters: scale not given: the % may be the effect or the level left; details: at 32 µg/mL
[16] = biological target: T1, Lanosterol 14-alpha demethylase; assay: Inhibition of CYP51 in Candida albicans SC5314 assessed as obtusifoliol level at 64 ug/ml by GC-MS analysis (reference value: 0 %); parameters: scale not given: the % may be the effect or the level left; details: at 64 µg/mL
[17] = biological target: T1, Lanosterol 14-alpha demethylase; assay: Inhibition of CYP51 in Candida albicans SC5314 assessed as lanosterol level at 8 ug/ml by GC-MS analysis (reference value: 1.7 %); parameters: scale not given: the % may be the effect or the level left; details: at 8 µg/mL
[18] = biological target: T1, Lanosterol 14-alpha demethylase; assay: Inhibition of CYP51 in Candida albicans SC5314 assessed as lanosterol level at 16 ug/ml by GC-MS analysis (reference value: 1.7 %); parameters: scale not given: the % may be the effect or the level left; details: at 16 µg/mL
[19] = biological target: T1, Lanosterol 14-alpha demethylase; assay: Inhibition of CYP51 in Candida albicans SC5314 assessed as lanosterol level at 32 ug/ml by GC-MS analysis (reference value: 1.7 %); parameters: scale not given: the % may be the effect or the level left; details: at 32 µg/mL
[20] = biological target: T1, Lanosterol 14-alpha demethylase; assay: Inhibition of CYP51 in Candida albicans SC5314 assessed as lanosterol level at 64 ug/ml by GC-MS analysis (reference value: 1.7 %); parameters: scale not given: the % may be the effect or the level left; details: at 64 µg/mL
[21] = biological target: T1, Lanosterol 14-alpha demethylase; assay: Inhibition of CYP51 in Candida albicans SC5314 assessed as eburicol level at 8 ug/ml by GC-MS analysis (reference value: 0 %); parameters: scale not given: the % may be the effect or the level left; details: at 8 µg/mL
[22] = biological target: T1, Lanosterol 14-alpha demethylase; assay: Inhibition of CYP51 in Candida albicans SC5314 assessed as eburicol level at 16 ug/ml by GC-MS analysis (reference value: 0 %); parameters: scale not given: the % may be the effect or the level left; details: at 16 µg/mL
[23] = biological target: T1, Lanosterol 14-alpha demethylase; assay: Inhibition of CYP51 in Candida albicans SC5314 assessed as eburicol level at 32 ug/ml by GC-MS analysis (reference value: 0 %); parameters: scale not given: the % may be the effect or the level left; details: at 32 µg/mL
[24] = biological target: T1, Lanosterol 14-alpha demethylase; assay: Inhibition of CYP51 in Candida albicans SC5314 assessed as eburicol level at 64 ug/ml by GC-MS analysis (reference value: 0 %); parameters: scale not given: the % may be the effect or the level left; details: at 64 µg/mL
[25] = test system: HL-60; assay: Cytotoxicity against human HL-60 cells assessed as inhibition of cell growth by MTT assay; type: functional, cell-based
[26] = test system: MDA-MB-231; assay: Cytotoxicity against human MDA-MB-231 cells assessed as inhibition of cell growth by MTT assay; type: functional, cell-based
[27] = test system: PC-3; assay: Cytotoxicity against human PC-3 cells assessed as inhibition of cell growth by MTT assay; type: functional, cell-based

- MIC [1]: 0.25 µg/mL
- MIC [2]: 0.01 µg/mL
- MIC [3]: 4 µg/mL
- MIC [4]: 0.125 µg/mL
- MIC [5]: 0.25 µg/mL
- MIC [6]: 0.25 µg/mL
- MIC [7]: 1 µg/mL
- MIC [8]: 2 µg/mL
- Activity [9]: 3.5%
- Activity [10]: 2.1%
- Activity [11]: 0.48%
- Activity [12]: 0.18%
- Activity [13]: 11.1%
- Activity [14]: 11.3%
- Activity [15]: 9.28%
- Activity [16]: 11.9%
- Activity [17]: 19.2%
- Activity [18]: 20.3%
- Activity [19]: 21.1%
- Activity [20]: 19.6%
- Activity [21]: 66.2%
- Activity [22]: 66.7%
- Activity [23]: 69.2%
- Activity [24]: 69.3%
SMILES: OC(C[Se]Cc1ccccc1Br)(Cn1cncn1)c1ccc(F)cc1F (configuration not stated)
- IC50 [25]: 18.4 µM
- IC50 [26]: 17.9 µM
- IC50 [27]: 15.6 µM
